The structures appear in SMILES notation.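 In this assay, cells in 96-well plates receive the compound at five concentrations for 48 hours. Endpoints are linearly interpolated between the surrounding concentrations. Here, GI50 denotes the concentration required for 50% inhibition of growth. TGI denotes the concentration required for complete inhibition of growth.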

Some test systems named below: HCT-116 colon; HT29 colon; UACC-62 melanoma; SK-MEL-5 melanoma; SK-OV-3 ovarian; NCI-H460 lung; MCF7 breast; RXF 393 renal; EKVX NSCLC; NCI/ADR-RES ovarian.
Common to all, as to experiment: NCI-60 cell line screen, 48 h

For the compound `Cn1ccnc1C(=O)/C=C/c1ccc(C(=O)Nc2ccccc2O)cc1`, the GI50 was 0.866 µM with HCT-116 colon; 2.4 µM in the assay with HT29 colon; 1.93 µM in the assay with UACC-62 melanoma; 3.36 µM in the assay on SK-MEL-5 melanoma; 4.13 µM in the assay with SK-OV-3 ovarian; 1.67 µM in the assay on NCI-H460 lung. Besides, the GI50 is 1.77 µM with MCF7 breast, 1.62 µM in the assay with RXF 393 renal, 2.45 µM in the assay with EKVX NSCLC and 2.86 µM in the assay on NCI/ADR-RES ovarian. The TGI in the assay on HCT-116 colon turned out to be 2.64 µM; with HT29 colon it was 7.3 µM; with UACC-62 melanoma, 5.01 µM; in the assay with SK-MEL-5 melanoma, 11.1 µM; in the assay with SK-OV-3 ovarian, 14.5 µM; in the assay with NCI-H460 lung, 5.6 µM. In addition, the TGI in the assay on MCF7 breast is 6.51 µM; with RXF 393 renal, 3.41 µM; with EKVX NSCLC, 7.09 µM; in the assay with NCI/ADR-RES ovarian, 22.6 µM.

As to `Cc1ccc(NSc2ccccc2[N+](=O)[O-])cc1`, the GI50 is 0.48 µM in the assay on HCT-116 colon; 0.117 µM in the assay with HT29 colon; 0.157 µM with UACC-62 melanoma; 0.152 µM in the assay on SK-MEL-5 melanoma; 1.06 µM in the assay with SK-OV-3 ovarian; 0.432 µM in the assay with NCI-H460 lung. Also, the GI50 with MCF7 breast was 0.133 µM; in the assay on RXF 393 renal it was 0.868 µM; in the assay with EKVX NSCLC it was 2.89 µM; with NCI/ADR-RES ovarian, 0.148 µM. Moreover, the TGI in the assay on HCT-116 colon came out at 12.1 µM; with HT29 colon it was 12.3 µM; in the assay with UACC-62 melanoma, 17 µM; with SK-MEL-5 melanoma, 13.6 µM; in the assay on SK-OV-3 ovarian it was 20.1 µM; in the assay on NCI-H460 lung, 11.1 µM. Besides, the TGI with MCF7 breast came out at 16.2 µM; with RXF 393 renal, 5.27 µM; with EKVX NSCLC it was 22.4 µM; with NCI/ADR-RES ovarian, 14.3 µM.

`Cc1nc(N)sc1N=Nc1cc(Cl)c([N+](=O)[O-])cc1Cl`: the TGI is more than 100 µM in the assay with HCT-116 colon; 28.7 µM with HT29 colon; 36.1 µM in the assay on UACC-62 melanoma; 19.4 µM in the assay with SK-MEL-5 melanoma; more than 100 µM with SK-OV-3 ovarian; 86.7 µM in the assay with NCI-H460 lung. For the same compound, the TGI in the assay with MCF7 breast was 68.8 µM; in the assay on RXF 393 renal, more than 100 µM; with EKVX NSCLC, 37.7 µM; in the assay on NCI/ADR-RES ovarian it was 70.4 µM.

Turning to `O=C(Nc1cccnc1)c1cccc([N+](=O)[O-])c1`, the GI50 in the assay on HCT-116 colon, in the assay with HT29 colon, in the assay with UACC-62 melanoma, with SK-MEL-5 melanoma, with SK-OV-3 ovarian and in the assay on NCI-H460 lung was more than 100 µM throughout. Further, the GI50 with MCF7 breast, in the assay with RXF 393 renal, with EKVX NSCLC and with NCI/ADR-RES ovarian was more than 100 µM each time. For the same compound, the TGI in the assay with HCT-116 colon, with HT29 colon, in the assay on UACC-62 melanoma, in the assay with SK-MEL-5 melanoma, in the assay with SK-OV-3 ovarian and in the assay on NCI-H460 lung was more than 100 µM throughout. Besides, the TGI in the assay on MCF7 breast, in the assay with RXF 393 renal, in the assay on EKVX NSCLC and with NCI/ADR-RES ovarian was more than 100 µM each time.

In the case of `CN1C(=O)c2cc([N+](=O)[O-])ccc2[C@H]2C(=O)c3cc4c(cc3[C@H]21)OCO4`, the GI50 was 0.0141 µM in the assay with HCT-116 colon; 0.179 µM in the assay with HT29 colon; 0.0356 µM with UACC-62 melanoma; 0.0534 µM with SK-MEL-5 melanoma; 0.588 µM with SK-OV-3 ovarian; 0.0285 µM in the assay on NCI-H460 lung. In addition, the GI50 was 0.118 µM with MCF7 breast, 0.398 µM in the assay on RXF 393 renal, 0.993 µM in the assay on EKVX NSCLC and 0.0684 µM in the assay with NCI/ADR-RES ovarian. Further, the TGI in the assay with HCT-116 colon was 0.128 µM; with HT29 colon, more than 43.2 µM; with UACC-62 melanoma, 0.337 µM; with SK-MEL-5 melanoma, 0.176 µM; with SK-OV-3 ovarian it was more than 100 µM; in the assay with NCI-H460 lung, 0.195 µM. Further, the TGI is 0.451 µM in the assay on MCF7 breast, more than 24.5 µM in the assay on EKVX NSCLC and 15.2 µM in the assay with NCI/ADR-RES ovarian.

`Cc1cc(NCCCCNc2ccnc3cc(Cl)ccc23)nc(Nc2ccc(C(=O)N3CCCC3)cc2)n1`: the GI50 with HCT-116 colon was 1.59 µM; with HT29 colon, 2.37 µM; with SK-MEL-5 melanoma, 1.7 µM; in the assay on SK-OV-3 ovarian, 3.49 µM; in the assay on NCI-H460 lung, 1.96 µM; with MCF7 breast, 1.72 µM. Moreover, the GI50 with RXF 393 renal was 1.47 µM; with EKVX NSCLC, 4.28 µM; in the assay on NCI/ADR-RES ovarian it was 16.4 µM. The TGI came to 3.55 µM in the assay on HCT-116 colon; 7.8 µM in the assay with HT29 colon; 3.13 µM in the assay with SK-MEL-5 melanoma; 9.11 µM with SK-OV-3 ovarian; 4.98 µM in the assay with NCI-H460 lung; 5.02 µM in the assay with MCF7 breast. Also, the TGI with RXF 393 renal worked out at 3.08 µM; with EKVX NSCLC, 15.6 µM; in the assay with NCI/ADR-RES ovarian it was 72.8 µM.

In the case of `COc1cc2c3c(n(CCCNC(=O)OCC4c5ccccc5-c5ccccc54)c(=O)c2cc1OC)-c1cc2c(cc1C3=O)OCO2`, the GI50 in the assay with HCT-116 colon is 13.8 µM; with HT29 colon, more than 100 µM; with UACC-62 melanoma it was 33.4 µM; in the assay with SK-MEL-5 melanoma, 28.2 µM; in the assay with SK-OV-3 ovarian it was more than 64.7 µM; in the assay with NCI-H460 lung, 2.57 µM. For the same compound, the GI50 with MCF7 breast is 7.62 µM; in the assay with RXF 393 renal, 20.1 µM; with EKVX NSCLC, more than 100 µM; in the assay on NCI/ADR-RES ovarian, more than 100 µM. Also, the TGI is more than 100 µM in the assay on HCT-116 colon; more than 100 µM in the assay with HT29 colon; more than 61.2 µM in the assay on UACC-62 melanoma; more than 100 µM with SK-MEL-5 melanoma; more than 100 µM in the assay with SK-OV-3 ovarian; more than 100 µM with NCI-H460 lung. Further, the TGI with MCF7 breast was more than 100 µM; with RXF 393 renal, more than 73.9 µM; in the assay with EKVX NSCLC it was more than 100 µM; in the assay on NCI/ADR-RES ovarian, more than 100 µM.

As for `CS(=O)(=O)Nc1cccc(-c2ccc3c(NC(=O)C4CC4)n[nH]c3c2)c1`, the GI50 in the assay on HCT-116 colon is 1.51 µM; in the assay with HT29 colon it was 3.88 µM; in the assay on UACC-62 melanoma it was 1.03 µM; in the assay with SK-MEL-5 melanoma it was 0.641 µM; in the assay with SK-OV-3 ovarian, 3.92 µM; with NCI-H460 lung it was 7.76 µM. Besides, the GI50 in the assay on MCF7 breast is 0.794 µM; in the assay with RXF 393 renal, 1.28 µM; in the assay on EKVX NSCLC it was more than 24.1 µM; with NCI/ADR-RES ovarian it was 6.45 µM. The TGI with HCT-116 colon was more than 25 µM; with HT29 colon it was more than 25 µM; in the assay with UACC-62 melanoma, more than 25 µM; in the assay on SK-MEL-5 melanoma, more than 13 µM; in the assay with SK-OV-3 ovarian, 15.7 µM; with NCI-H460 lung it was more than 25 µM. Further, the TGI is more than 9.93 µM with MCF7 breast, more than 25 µM in the assay on RXF 393 renal, more than 25 µM in the assay with EKVX NSCLC and more than 25 µM with NCI/ADR-RES ovarian.

The record behind these values is PubChem BioAssay (NCI).
